Experimental findings from patent US20220202905A1, “COMPOSITION FOR PREVENTING OR TREATING NEUROTROPHIC KERATITIS WHICH CONTAINS PACAP PEPTIDE OR STABILIZED PACAP PEPTIDE” (SENJU PHARMACEUTICAL CO., LTD., priority 2019, published 2022) are described below.

The target in one series is T1, PAC1R (Homo sapiens, UniProt P41586).
T1 construct: host or cells: CHO-K1
T1 sequence (P41586 21-468): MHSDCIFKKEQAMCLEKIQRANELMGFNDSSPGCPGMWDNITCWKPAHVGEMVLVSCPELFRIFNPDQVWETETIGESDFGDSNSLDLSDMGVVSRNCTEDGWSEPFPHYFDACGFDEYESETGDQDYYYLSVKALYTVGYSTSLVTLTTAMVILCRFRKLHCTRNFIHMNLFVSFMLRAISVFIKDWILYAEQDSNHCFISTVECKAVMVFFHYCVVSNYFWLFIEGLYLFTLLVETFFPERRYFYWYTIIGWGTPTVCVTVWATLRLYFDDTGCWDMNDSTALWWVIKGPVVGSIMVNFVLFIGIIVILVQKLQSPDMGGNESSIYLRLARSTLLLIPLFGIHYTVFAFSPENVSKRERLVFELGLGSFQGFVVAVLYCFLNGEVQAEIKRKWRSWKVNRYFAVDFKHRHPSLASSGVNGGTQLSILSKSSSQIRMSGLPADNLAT
Kind of series: cAMP assay in PAC1R high-expressing CHO-K1 cell line. It counts as cell-based. The note with it: Table 12; cAMP inducing effect, CHO-K1 PAC1R high-expressing cells. Here is the method:
(§1) The cells were cultured for 18 to 24 hours at 37° C. in a 5% C02 incubator, adhering the cells to the plate. […] A 5-fold dilution series was then prepared with the same Cell assay buffer and used in an assay. The cAMP assay was carried out using a Hit Hunter cAMP Assay for Biologics kit (product of DiscoveRx, Cat. No. 90-0075LM25), according to the included kit instructions. […] Next, the culture medium was removed from the CHO-K1 cell culture plate, washing was performed with PBS, and the peptide-cAMP antibody liquid mixtures were added to the cells and incubated for 30 minutes under a 5% CO2 atmosphere at 37° C. A working detection solution was then added and the culture plate was shielded from light with aluminum foil and incubated at 25° C. for 1 hour. After incubation, Solution A was added and the culture plate was shielded from light with aluminum foil and then incubated at 25° C. for 3 hours. […] The obtained value for the Relative Luminescence Unit (RLU) was analyzed with GraphPad Prism Ver 6.05 (product of Graph Pad) and the EC50 value was calculated for each peptide. […] FIG. 2 and Table 11. […] A 5-fold dilution series was then prepared with the same Cell assay buffer and used in an assay. […] A 5-fold dilution series was then prepared with the same Cell assay buffer and used in an assay.

The target of the next series is T2, VPAC1R (Homo sapiens, UniProt P32241).
T2 construct: host or cells: CHO-K1
T2 sequence (P32241 31-457): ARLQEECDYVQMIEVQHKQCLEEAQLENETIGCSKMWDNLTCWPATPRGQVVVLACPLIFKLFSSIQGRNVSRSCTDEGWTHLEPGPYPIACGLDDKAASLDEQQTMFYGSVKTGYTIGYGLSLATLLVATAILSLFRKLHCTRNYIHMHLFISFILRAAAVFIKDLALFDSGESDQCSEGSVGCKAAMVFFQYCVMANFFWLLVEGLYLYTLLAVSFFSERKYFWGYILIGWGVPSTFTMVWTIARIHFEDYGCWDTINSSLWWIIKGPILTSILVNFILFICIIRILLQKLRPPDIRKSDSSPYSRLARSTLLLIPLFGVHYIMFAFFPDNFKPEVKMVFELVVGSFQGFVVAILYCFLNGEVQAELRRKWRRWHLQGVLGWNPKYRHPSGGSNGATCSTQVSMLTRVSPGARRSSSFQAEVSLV
Kind of series: cAMP assay in VPAC1R high-expressing CHO-K1 cell line. The note with it: Table 12; cAMP inducing effect, CHO-K1 VPAC1R high-expressing cells. It counts as cell-based. The protocol:
as §1
Background: cAMP levels reflect the balance of adenylyl cyclase and phosphodiesterase activity.

Series [1] in a line: Peptide stability test, phosphate buffer (pH 7.0), 40° C. storage, HPLC remaining rate. Type of series: physicochemical. Here is the method: Peptides 1 and 3 to 5 synthesized in Example 2 were weighed and dissolved in phosphate buffer (pH 7.0) to prepare 1.0 mM peptide solutions. The 1.0 mM peptide solutions were then diluted with phosphate buffer to 100 μM. After filtering with Chromatdisk (product of Merck Millipore, Millex-GV, 0.22 μm), each filtrate was dispensed into an LC vial (Waters Deactivated […] prepared peptide solutions were incubated for one month or 2 months in a 40° C. thermostatic bath to obtain stored samples. A simultaneously prepared sample among the peptide solutions that was not stored was used as a standard sample (initial sample). The standard sample and the stored samples were stored at -30° C. until sample analysis. Using the total weight of the aqueous peptide solution and storage vessel as the specimen weight, measurements were recorded as the specimen weights before storage and the specimen weights after storage under different storage conditions. The empty weight of the storage vessel was also measured, and the moisture permeability was determined by the following formula. After stirring the standard sample and the stored samples with a vortex mixer, each peptide solution was transferred to an HPLC vial (Deactivated Qsert vial by Waters Co.). Reverse-phase HPLC (HPLC system: Prominence by Shimadzu Corp.) was conducted under the conditions shown in Table 3 below for analysis of the peptide solutions, and chromatograms were obtained. Guard column: XSelect CSH C18 by Waters Co., 5 μm, 4.6×20 mm Guard Cartridge Detection wavelength: 220 nm Mobile phase A: 0.1% formic acid aqueous solution Mobile phase B: 0.1% acetonitrile formate solution Measuring time: 30 minutes Measuring sample injection rate: 50 μL Flow rate: 1.0 mL/min Sample cooler: 4° C. Column temperature: 40° C. Mobile phase delivery: The mixing ratio of mobile phase A and mobile phase B was varied as shown in Table 3 for linear concentration gradient control. The peak area value for the peptide in the chromatogram was calculated, and the remaining rate (remaining rate before correction for water) was calculated using formula (2). The remaining rate after correction for water was also calculated from the remaining rate before correction for water using formula (3), taking into account the moisture permeability of the vessel. Peptides 10 and 11 synthesized in Example 2 were weighed and dissolved in phosphate buffer (pH 7.0) to prepare 1.0 mM peptide solutions. Each solution was filtered with a Chromatdisk (product of Merck Millipore. Millex-GV, 0.22 μm). Each filtrate was diluted to 100 μM with phosphate buffer (pH 7.0) and dispensed into a tube (Protein LoBind Tube by Eppendorf Co.). The prepared peptide solutions were incubated for one month or 2 months in a 40° C. thermostatic bath to obtain stored samples. A simultaneously prepared sample among the peptide solutions that was not stored was used as a standard sample (initial sample). The standard sample and the stored samples were stored at -30° C. until sample analysis. The remaining rate after correction for water for each peptide among the stored samples was measured in the same manner as Example 4, and the results are shown in Table 8.

The nature of series [2]: Peptide stability test, Tris buffer (pH 7.0), 60° C. storage, HPLC remaining rate. Type of series: physicochemical. The note with it: Table 7; 100 μM in Tris buffer pH 7.0. Put shortly: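 Peptides at 100 μM in Tris buffer (pH 7.0) stored 1 or 2 weeks at 60° C.; unstored sample kept at −30° C. as initial reference. Remaining peptide quantified by reversed-phase HPLC at 220 nm (formic acid/acetonitrile gradient, 40° C. column), as water-corrected remaining rate.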

The mark [3] stands for this setting: Table 8, 100 μM in phosphate buffer pH 7.0, measured as in Example 4.

SMILES strings stand for the structures. Square brackets hold non-standard residues; d marks the D form. Peptide text beside a SMILES is read from it. Ala(1H-tetrazol-5-yl) = N[C@@H](Cc1nnn[nH]1)C(=O)O

One may read the EC50 as the concentration that produces a half-maximal response. A high value points to a less potent agent. As to `CC[C@H](C)[C@H](NC(=O)CNC(=O)[C@H](Cc1nnn[nH]1)NC(=O)[C@H](CO)NC(=O)[C@@H](N)Cc1c[nH]cn1)C(=O)N[C@@H](Cc1ccccc1)C(=O)N[C@H](C(=O)N[C@@H](CC(=O)O)C(=O)N[C@@H](CO)C(=O)N[C@@H](Cc1ccc(O)cc1)C(=O)N[C@@H](CO)C(=O)N[C@@H](CCCNC(=N)N)C(=O)N[C@@H](Cc1ccc(O)cc1)C(=O)N[C@@H](CCCNC(=N)N)C(=O)N[C@@H](CCCCN)C(=O)N[C@@H](CCC(N)=O)C(=O)N[C@@H](CCSC)C(=O)N[C@@H](C)C(=O)N[C@H](C(=O)N[C@@H](CCCCN)C(=O)N[C@@H](CCCCN)C(=O)N[C@@H](Cc1ccc(O)cc1)C(=O)N[C@@H](CC(C)C)C(=O)N[C@@H](C)C(=O)N[C@@H](C)C(=O)N[C@H](C(=O)N[C@@H](CC(C)C)C(N)=O)C(C)C)C(C)C)[C@@H](C)O` [Peptide 3], the results for the EC50 at PAC1R and on VPAC1R were 0.06 nM and 0.101 nM, respectively.

Regarding `CC[C@H](C)[C@H](NC(=O)CNC(=O)[C@H](Cc1nnn[nH]1)NC(=O)[C@H](CO)NC(=O)[C@H](Cc1c[nH]cn1)NC(C)=O)C(=O)N[C@@H](Cc1ccccc1)C(=O)N[C@H](C(=O)N[C@@H](Cc1nnn[nH]1)C(=O)N[C@@H](CO)C(=O)N[C@@H](Cc1ccc(O)cc1)C(=O)N[C@@H](CO)C(=O)N[C@@H](CCCNC(=N)N)C(=O)N[C@@H](Cc1ccc(O)cc1)C(=O)N[C@@H](CCCNC(=N)N)C(=O)N[C@@H](CCCCN)C(=O)N[C@@H](CCC(N)=O)C(=O)N[C@@H](CCSC)C(=O)N[C@@H](C)C(=O)N[C@H](C(=O)N[C@@H](CCCCN)C(=O)N[C@@H](CCCCN)C(=O)N[C@@H](Cc1ccc(O)cc1)C(=O)N[C@@H](CC(C)C)C(=O)N[C@@H](C)C(=O)N[C@@H](C)C(=O)N[C@H](C(=O)N[C@@H](CC(C)C)C(N)=O)C(C)C)C(C)C)[C@@H](C)O` [Peptide 10] (Ac-HS[Ala(1H-tetrazol-5-yl)]GIFT[Ala(1H-tetrazol-5-yl)]SYSRYRKQMAVKKYLAAVL-NH2), in series [1] (setting [3]), the “remaining rate after correction for water, 40° C., 1 month preservation” value worked out at 94.0% and the “remaining rate after correction for water, 40° C., 2 months preservation” value is on record as 86.8%. Also, in series [1] (phosphate buffer pH 7.0, 1 or 2 months), the “stability in aqueous solution (in words), 40° C. storage” value is listed as “stabilized to the same degree”. The compound also had a half-maximal effective concentration (EC50) at VPAC1R of 0.101 nM.

As to `CC[C@H](C)[C@H](NC(=O)[C@H](C)NC(=O)[C@H](Cc1nnn[nH]1)NC(=O)[C@H](CO)NC(=O)[C@H](Cc1c[nH]cn1)NC(C)=O)C(=O)N[C@@H](Cc1ccccc1)C(=O)N[C@H](C(=O)N[C@@H](Cc1nnn[nH]1)C(=O)N[C@@H](CO)C(=O)N[C@@H](Cc1ccc(O)cc1)C(=O)N[C@@H](CO)C(=O)N[C@@H](CCCNC(=N)N)C(=O)N[C@@H](Cc1ccc(O)cc1)C(=O)N[C@@H](CCCNC(=N)N)C(=O)N[C@@H](CCCCN)C(=O)N[C@@H](CCC(N)=O)C(=O)N[C@@H](CC(C)C)C(=O)N[C@@H](C)C(=O)N[C@H](C(=O)N[C@@H](CCCCN)C(=O)N[C@@H](CCCCN)C(=O)N[C@@H](Cc1ccc(O)cc1)C(=O)N[C@@H](CC(C)C)C(=O)N[C@@H](C)C(=O)N[C@@H](C)C(=O)N[C@H](C(=O)N[C@@H](CC(C)C)C(N)=O)C(C)C)C(C)C)[C@@H](C)O` [Peptide 23] (Ac-HS[Ala(1H-tetrazol-5-yl)]AIFT[Ala(1H-tetrazol-5-yl)]SYSRYRKQLAVKKYLAAVL-NH2), in series [2], the “remaining rate after correction for water, 60° C., 1 week preservation” value came to 96.5% and the “remaining rate after correction for water, 60° C., 2 weeks preservation” value worked out at 93.1%. At PAC1R, this compound showed an EC50 of 0.079 nM. Besides, the EC50 at VPAC1R was determined as 0.072 nM.

For the compound `CC[C@H](C)[C@H](NC(=O)CNC(=O)[C@H](Cc1nnn[nH]1)NC(=O)[C@H](CO)NC(=O)[C@H](Cc1c[nH]cn1)NC(C)=O)C(=O)N[C@@H](Cc1ccccc1)C(=O)N[C@H](C(=O)N[C@@H](Cc1nnn[nH]1)C(=O)N[C@@H](C)C(=O)N[C@@H](Cc1ccc(O)cc1)C(=O)N[C@@H](CO)C(=O)N[C@@H](CCCNC(=N)N)C(=O)N[C@@H](Cc1ccc(O)cc1)C(=O)N[C@@H](CCCNC(=N)N)C(=O)N[C@@H](CCCCN)C(=O)N[C@@H](CCC(N)=O)C(=O)N[C@@H](C)C(=O)N[C@@H](C)C(=O)N[C@H](C(=O)N[C@@H](CCCCN)C(=O)N[C@@H](CCCCN)C(=O)N[C@@H](Cc1ccc(O)cc1)C(=O)N[C@@H](CC(C)C)C(=O)N[C@@H](C)C(=O)N[C@@H](C)C(=O)N[C@H](C(=O)N[C@@H](CC(C)C)C(N)=O)C(C)C)C(C)C)[C@@H](C)O` [Peptide 27] (Ac-HS[Ala(1H-tetrazol-5-yl)]GIFT[Ala(1H-tetrazol-5-yl)]AYSRYRKQAAVKKYLAAVL-NH2), in series [2], the “remaining rate after correction for water, 60° C., 1 week preservation” value is 96.4% and the “remaining rate after correction for water, 60° C., 2 weeks preservation” value is listed as 93.5%. The midpoint of the response at PAC1R, the EC50, lay at 0.06 nM. Further, the EC50 at VPAC1R came to 0.044 nM.
